{
  "source": "ChEMBL document CHEMBL1641410",
  "about": "“In silico discovery of acylated flavonol monorhamnosides from Eriobotrya japonica as natural, small-molecular weight inhibitors of XIAP BIR3” (Bioorg Med Chem, 2011)",
  "key": {"[1]": {"target": "E3 ubiquitin-protein ligase XIAP (Homo sapiens, UniProt P98170)", "sequence (P98170 whole entry, the tested form may be a part)": "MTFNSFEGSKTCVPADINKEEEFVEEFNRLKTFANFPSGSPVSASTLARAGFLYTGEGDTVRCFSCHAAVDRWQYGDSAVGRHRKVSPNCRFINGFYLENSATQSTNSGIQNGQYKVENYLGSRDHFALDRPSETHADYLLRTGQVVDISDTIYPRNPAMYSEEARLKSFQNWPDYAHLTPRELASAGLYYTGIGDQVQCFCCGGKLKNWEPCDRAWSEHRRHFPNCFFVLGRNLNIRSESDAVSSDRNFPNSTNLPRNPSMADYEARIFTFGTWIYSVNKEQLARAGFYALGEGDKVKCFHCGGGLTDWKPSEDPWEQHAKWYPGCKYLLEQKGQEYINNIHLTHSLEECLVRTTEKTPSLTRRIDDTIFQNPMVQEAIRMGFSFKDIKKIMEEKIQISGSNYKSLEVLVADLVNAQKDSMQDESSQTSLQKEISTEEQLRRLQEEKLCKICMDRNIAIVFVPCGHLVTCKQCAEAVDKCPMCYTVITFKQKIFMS", "test": "Displacement of fluorescent SM5F peptide from XIAP linker BIR3 domain after 3 hrs by fluorescence polarization assay"}, "[2]": {"test": "Chemical stability of the compound after 15 hrs", "format": "physicochemical"}},
  "data": [
    {"smiles": "C[C@@H]1O[C@@H](Oc2c(-c3ccc(O)cc3)oc3cc(O)cc(O)c3c2=O)[C@H](OC(=O)/C=C/c2ccc(O)cc2)[C@H](O)[C@H]1OC(=O)/C=C/c1ccc(O)cc1", "values": [
      {"measurement": "IC50", "setting": "[1]", "value": "> 10.4", "unit": "µM"},
      {"measurement": "Stability", "setting": "[2]", "value": "Stable"}
    ]},
    {"smiles": "O=c1c(O)c(-c2ccc(O)cc2)oc2cc(O)cc(O)c12", "note": "[KAEMPFEROL]", "values": [
      {"measurement": "IC50", "setting": "[1]", "value": "> 100", "unit": "µM"}
    ]}
  ]
}
